# According to BindingDB's records for doi:10.1016/S0045-2068(03)00081-6 (Johns Hopkins University School of Medicine, 2003):
# Target: Serotonin N-acetyltransferase (Ovis aries) (UniProt Q29495)
# Experiment: AANAT activity was measured using a spectrophotometric assay in which the enzymatic product CoASH concentration were determined indirectly by monitoring its reaction product with DTNB at 412nm.
# Conditions: pH 6.8
# Serotonin N-acetyltransferase (Ovis aries), sequence (Q29495 whole entry, looked up): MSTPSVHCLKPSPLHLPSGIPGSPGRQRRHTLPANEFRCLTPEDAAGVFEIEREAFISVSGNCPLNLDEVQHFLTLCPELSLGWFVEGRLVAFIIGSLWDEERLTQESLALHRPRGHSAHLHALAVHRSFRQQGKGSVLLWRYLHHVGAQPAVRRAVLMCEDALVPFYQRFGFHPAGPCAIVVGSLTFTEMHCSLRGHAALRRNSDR
row,Compound,Ki
1,"CC(C)(COP(=O)(O)OP(=O)(O)OC[C@H]1OC(n2cnc3c(N)ncnc32)[C@@H](O)[C@@H]1OP(=O)(O)O)[C@@H](O)C(=O)NCCC(=O)NCCSCCCNCCc1c[nH]c2ccccc12 (some centres undefined) [AANAT bisubstrate analog, 7]",5840 nM
2,"CC(C)(COP(=O)(O)OP(=O)(O)OC[C@H]1OC(n2cnc3c(N)ncnc32)[C@@H](O)[C@@H]1OP(=O)(O)O)[C@@H](O)C(=O)NCCC(=O)NCCSCCCCCc1c[nH]c2ccccc12 (some centres undefined) [AANAT bisubstrate analog, 4]",360 nM
3,"CC(C)(COP(=O)(O)OP(=O)(O)OC[C@H]1OC(n2cnc3c(N)ncnc32)[C@@H](O)[C@@H]1OP(=O)(O)O)[C@@H](O)C(=O)NCCC(=O)NCCSCCCCc1c[nH]c2ccccc12 (some centres undefined) [AANAT bisubstrate analog, 5]",310 nM
4,"CC(C)(COP(=O)(O)OP(=O)(O)OC[C@H]1OC(n2cnc3c(N)ncnc32)[C@@H](O)[C@@H]1OP(=O)(O)O)[C@@H](O)C(=O)NCCC(=O)NCCSCCCc1c[nH]c2ccccc12 (some centres undefined) [AANAT bisubstrate analog, 6]",840 nM
